Source: patent publication US20230391739A1, “ARYL DERIVATIVES FOR TREATING TRPM3 MEDIATED DISORDERS” (Katholieke Universiteit Leuven, priority 2020, published 2023)

Target: T1, mouse TRPM3α2 (mTRPM3) ion channel (Mus musculus, UniProt J9SQF3)
T1 construct: expressed in transfected cells; host or cells: flip-in HEK293
Experiment: TRPM3 ion channel driven Ca2+ uptake, Fluo-4 AM assay, PS-stimulated (mTRPM3)
Assay type: cell-based
Settings: TRPM3 overexpressing flip-in HEK293 cells stimulated with Pregnenolone sulfate (PS) 50 μM, activity ranges A, B, C
Experimental: Monitoring the TRPM3 Ion Channel Driven Ca^2+ Uptake.
In order to monitor the inhibition of the mouse TRPM3α2 (mTRPM3) ion channel by the compounds of the invention, a cellular system making use of an mTRPM3alpha2 or hTRPM3 overexpressing cell line (flip-in HEK293) was used. The TRPM3 channel was stimulated/opened with Pregnenolone sulfate (PS) (50 μM) which results in Ca^2+ influx.
For mTRPM3, the intracellular Ca^2+ was measured with a Calcium responsive dye, Fluor-4 AM ester (Invitrogen). Cells were cultured until a confluence of 80-90%, washed with Versene (Invitrogen) and detached from the surface by a short incubation with 0.05% Trypsin (Invitrogen). The trypsination process was stopped by the addition of complete cell culture medium (DMEM, glutamax, 10% FCS, NEAA, Pen-Strep). Cells were collected and resuspended in Krebs buffer without Calcium at RT.
Prior the cell seeding (±2000 cells/well into a black, 384 well plate (Greiner)) the diluted compound was added in the assay plate, together with the PS dissolved in Krebs buffer containing Calcium. […] Directly after cell addition the plates were read on an Envision fluorescence reader (Perkin Elmer) by an Excitation of 485 nm and emission at 535 nm.
Channel inhibition was calculated compared to a non-PS stimulated control versus a condition stimulated with PS (50 μM) with vehicle. The ability of the compounds of the invention to inhibit this activity was determined as: Percentage inhibition=[1−((RFU determined for sample with test compound present−RFU determined for sample with positive control inhibitor) divided by (RFU determined in the presence of vehicle−RFU determined for sample with positive control inhibitor))]*100.
The activities of the Example compounds tested are depicted in the table below.

T1 sequence (J9SQF3 1-1709 isoform J9SQF3-12): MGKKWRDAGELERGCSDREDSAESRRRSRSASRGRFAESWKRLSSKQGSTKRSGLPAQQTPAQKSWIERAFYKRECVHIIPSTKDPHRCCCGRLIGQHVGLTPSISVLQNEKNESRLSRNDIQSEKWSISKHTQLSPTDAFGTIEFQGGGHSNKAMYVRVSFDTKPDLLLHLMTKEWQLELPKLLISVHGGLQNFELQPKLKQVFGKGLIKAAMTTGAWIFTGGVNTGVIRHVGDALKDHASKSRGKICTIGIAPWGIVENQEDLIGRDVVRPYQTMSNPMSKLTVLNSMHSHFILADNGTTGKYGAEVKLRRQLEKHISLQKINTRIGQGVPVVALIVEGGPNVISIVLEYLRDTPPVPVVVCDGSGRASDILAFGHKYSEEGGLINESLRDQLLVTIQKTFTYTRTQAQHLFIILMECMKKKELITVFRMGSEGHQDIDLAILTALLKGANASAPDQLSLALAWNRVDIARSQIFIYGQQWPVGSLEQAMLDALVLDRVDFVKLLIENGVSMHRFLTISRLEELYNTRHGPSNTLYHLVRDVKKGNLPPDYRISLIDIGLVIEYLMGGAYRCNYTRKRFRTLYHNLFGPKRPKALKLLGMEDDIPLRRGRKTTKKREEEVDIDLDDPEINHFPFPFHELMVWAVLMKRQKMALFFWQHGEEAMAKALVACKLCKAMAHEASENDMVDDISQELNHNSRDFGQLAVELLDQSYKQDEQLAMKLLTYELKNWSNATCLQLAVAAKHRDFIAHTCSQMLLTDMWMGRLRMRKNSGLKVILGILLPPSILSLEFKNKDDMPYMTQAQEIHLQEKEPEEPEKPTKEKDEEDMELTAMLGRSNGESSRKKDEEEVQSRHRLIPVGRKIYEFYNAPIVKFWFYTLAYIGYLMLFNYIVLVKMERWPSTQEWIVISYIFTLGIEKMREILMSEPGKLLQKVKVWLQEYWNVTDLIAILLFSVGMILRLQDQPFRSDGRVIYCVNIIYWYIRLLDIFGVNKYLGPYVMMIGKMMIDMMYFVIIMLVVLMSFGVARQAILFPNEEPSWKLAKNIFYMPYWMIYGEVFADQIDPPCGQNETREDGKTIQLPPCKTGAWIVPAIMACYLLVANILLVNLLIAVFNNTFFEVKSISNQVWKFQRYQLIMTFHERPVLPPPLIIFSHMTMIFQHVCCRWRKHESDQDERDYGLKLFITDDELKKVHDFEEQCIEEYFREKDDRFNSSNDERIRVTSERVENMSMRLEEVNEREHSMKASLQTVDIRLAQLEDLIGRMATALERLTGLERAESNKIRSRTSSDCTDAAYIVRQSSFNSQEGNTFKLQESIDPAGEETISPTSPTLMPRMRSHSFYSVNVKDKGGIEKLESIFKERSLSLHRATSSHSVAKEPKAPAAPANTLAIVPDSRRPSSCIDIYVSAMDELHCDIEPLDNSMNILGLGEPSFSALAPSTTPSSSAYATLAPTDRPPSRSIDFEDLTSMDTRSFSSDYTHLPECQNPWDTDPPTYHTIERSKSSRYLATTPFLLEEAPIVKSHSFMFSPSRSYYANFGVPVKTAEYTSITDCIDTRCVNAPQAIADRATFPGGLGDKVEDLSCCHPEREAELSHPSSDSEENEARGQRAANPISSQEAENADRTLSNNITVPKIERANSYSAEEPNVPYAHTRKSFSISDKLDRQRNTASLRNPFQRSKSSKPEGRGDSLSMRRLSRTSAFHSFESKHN

| SMILES | IC50 [µM] |
| --- | --- |
| Cc1oc2ccc(OCc3ccccc3F)cc2c1C(=O)NC1(C(N)=O)CCOC1 (single isomer, unassigned) [Cpd 323-En 1, N-(3-carbamoyltetrahydrofuran-3-yl)-5-((2-fluorobenzyl)oxy)-2-methylbenzofuran-3-carboxamide] | < 1 |
| Cc1oc2ccc(OCc3ccccc3F)cc2c1C(=O)NC1(C(N)=O)CCOC1 (single isomer, unassigned) [Cpd 323-En 2, N-(3-carbamoyltetrahydrofuran-3-yl)-5-((2-fluorobenzyl)oxy)-2-methylbenzofuran-3-carboxamide] | < 1 |
| Cc1oc2ccc(OCc3ccccc3F)cc2c1C(=O)NC1(CO)CCOC1 (single isomer, unassigned) [Cpd 327-En 1, 5-((2-fluorobenzyl)oxy)-N-(3-(hydroxymethyl)tetrahydrofuran-3-yl)-2-methylbenzofuran-3-carboxamide] | < 1 |
| Cc1oc2ccc(OCc3ccccc3F)cc2c1C(=O)NC1(CO)CCOC1 (single isomer, unassigned) [Cpd 327-En 2, 5-((2-fluorobenzyl)oxy)-N-(3-(hydroxymethyl)tetrahydrofuran-3-yl)-2-methylbenzofuran-3-carboxamide] | < 1 |
| Cc1oc2ccc(OCc3ccccc3F)cc2c1C(=O)NC(C)CO (single isomer, unassigned) [Cpd 328-En 1] | < 1 |
| Cc1oc2ccc(OCc3ccccc3F)cc2c1C(=O)NC(C)CO (single isomer, unassigned) [Cpd 328-En 2] | < 1 |
| Cc1oc2ccc(OCc3ccccc3F)cc2c1C(=O)N[C@@H]1COC[C@@H]1O (single isomer, unassigned) [Cpd 329-En 1] | < 1 |
| Cc1oc2ccc(OCc3ccccc3F)cc2c1C(=O)N[C@@H]1COC[C@@H]1O (single isomer, unassigned) [Cpd 329-En 2] | < 1 |
| Cc1oc2ccc(OCc3ccccc3F)cc2c1C(=O)N[C@@H]1COC[C@H]1O (single isomer, unassigned) [Cpd 330-En 1] | < 1 |
| Cc1oc2ccc(OCc3ccccc3F)cc2c1C(=O)NC1COCC1(F)F (single isomer, unassigned) [Cpd 331-En 1] | > 20 |
| Cc1oc2ccc(OCc3ccccc3F)cc2c1C(=O)NC1COCC1(F)F (single isomer, unassigned) [Cpd 331-En 2] | < 1 |
| Cc1oc2ccc(OCc3ccccc3S(C)(=O)=O)cc2c1C(=O)NC1CCNCC1(F)F (single isomer, unassigned) [Cpd 333-En 1, N-(3,3-difluoropiperidin-4-yl)-2-methyl-5-((2-(methylsulfonyl)benzyl)oxy)benzofuran-3-carboxamide] | 1 to 20 |
| Cc1oc2ccc(OCc3ccccc3S(C)(=O)=O)cc2c1C(=O)NC1CCNCC1(F)F (single isomer, unassigned) [Cpd 333-En 2, N-(3,3-difluoropiperidin-4-yl)-2-methyl-5-((2-(methylsulfonyl)benzyl)oxy)benzofuran-3-carboxamide] | < 1 |
| Cc1oc2ccc(OCc3ccccc3F)cc2c1C(=O)NC1(CO)CCNC1=O (single isomer, unassigned) [Cpd 334-En 1] | < 1 |
| Cc1oc2ccc(OCc3ccccc3F)cc2c1C(=O)NC1(CO)CCNC1=O (single isomer, unassigned) [Cpd 334-En 2] | < 1 |
| Cc1oc2ccc(OC(CO)c3ccccc3F)cc2c1C(=O)N[C@@H](CO)C(N)=O (single isomer, unassigned) [Cpd 335-Dia 1] | < 1 |
| Cc1oc2ccc(OC(CO)c3ccccc3F)cc2c1C(=O)N[C@@H](CO)C(N)=O (single isomer, unassigned) [Cpd 335-Dia 2] | < 1 |
| Cc1oc2ccc(OC(C)c3ccccc3)cc2c1C(=O)N[C@@H](CO)C(N)=O (single isomer, unassigned) [Cpd 336-Dia 1] | < 1 |
| Cc1oc2ccc(OC(C)c3ccccc3)cc2c1C(=O)N[C@@H](CO)C(N)=O (single isomer, unassigned) [Cpd 336-Dia 2] | < 1 |
| Cc1oc2ccc(OC(C)c3ccccc3)cc2c1C(=O)NC1(C(N)=O)CCC1 (single isomer, unassigned) [Cpd 343-En 1, N-(1-carbamoylcyclobutyl)-2-methyl-5-(1-phenylethoxy)benzofuran-3-carboxamide] | < 1 |
| Cc1oc2ccc(OC(C)c3ccccc3)cc2c1C(=O)NC1(C(N)=O)CCC1 (single isomer, unassigned) [Cpd 343-En 2, N-(1-carbamoylcyclobutyl)-2-methyl-5-(1-phenylethoxy)benzofuran-3-carboxamide] | < 1 |
| Cc1oc2ccc(OC(CO)c3ccccc3F)cc2c1C(=O)NC1(C(N)=O)CCC1 (single isomer, unassigned) [Cpd 345-En 1, N-(1-carbamoylcyclobutyl)-5-(1-(2-fluorophenyl)-2-hydroxyethoxy)-2-methylbenzofuran-3-carboxamide] | < 1 |

| SMILES | IC50 [µM] |
| --- | --- |
| Cc1oc2ccc(OC(CO)c3ccccc3F)cc2c1C(=O)NC1(C(N)=O)CCC1 (single isomer, unassigned) [Cpd 345-En 2, N-(1-carbamoylcyclobutyl)-5-(1-(2-fluorophenyl)-2-hydroxyethoxy)-2-methylbenzofuran-3-carboxamide] | < 1 |
| COCC(Oc1ccc2oc(C)c(C(=O)N[C@@H](CO)C(N)=O)c2c1)c1ccccc1 (single isomer, unassigned) [Cpd 346-En 1] | < 1 |
| COCC(Oc1ccc2oc(C)c(C(=O)N[C@@H](CO)C(N)=O)c2c1)c1ccccc1 (single isomer, unassigned) [Cpd 346-En 2] | < 1 |
| Cc1oc2ccc(OC(CN(C)C)c3ccccc3)cc2c1C(=O)N[C@@H](CO)C(N)=O (single isomer, unassigned) [Cpd 347-En 1] | 1 to 20 |
| Cc1oc2ccc(OC(CN(C)C)c3ccccc3)cc2c1C(=O)N[C@@H](CO)C(N)=O (single isomer, unassigned) [Cpd 347-En 2] | < 1 |
| O=C(O)c1coc2ccc(OCc3ccccc3)cc12 [Cpd 001, 5-(benzyloxy)benzofuran-3-carboxylic acid] | 1 to 20 |
| Cc1oc2ccc(OCc3ccccc3)cc2c1C(=O)O [Cpd 002, 5-(benzyloxy)-2-methylbenzofuran-3-carboxylic acid] | < 1 |
| Cc1ccccc1COc1ccc2oc(C)c(C(=O)O)c2c1 [Cpd 003, 2-methyl-5-((2-methylbenzyl)oxy)benzofuran-3-carboxylic acid] | < 1 |
| Cc1oc2ccc(OC(C)c3ccccc3)cc2c1C(=O)O (centres unmarked) [Cpd 004, 2-methyl-5-(1-phenylethoxy)benzofuran-3-carboxylic acid] | 1 to 20 |
| Cc1cccc(COc2ccc3oc(C)c(C(=O)O)c3c2)c1 [Cpd 005, 2-methyl-5-((3-methylbenzyl)oxy)benzofuran-3-carboxylic acid] | < 1 |
| Cc1ccc(COc2ccc3oc(C)c(C(=O)O)c3c2)cc1 [Cpd 006, 2-methyl-5-((4-methylbenzyl)oxy)benzofuran-3-carboxylic acid] | 1 to 20 |
| Cc1oc2ccc(OCc3ccccc3F)cc2c1C(=O)O [Cpd 008, 5-((2-fluorobenzyl)oxy)-2-methylbenzofuran-3-carboxylic acid] | < 1 |
| Cc1oc2ccc(OCc3ccc(F)cc3)cc2c1C(=O)O [Cpd 009, 5-((4-fluorobenzyl)oxy)-2-methylbenzofuran-3-carboxylic acid] | 1 to 20 |
| Cc1oc2ccc(OCc3ccccc3C#N)cc2c1C(=O)O [Cpd 010, 5-((2-cyanobenzyl)oxy)-2-methylbenzofuran-3-carboxylic acid] | 1 to 20 |
| Cc1oc2ccc(OC3CCc4ccccc43)cc2c1C(=O)O (centres unmarked) [Cpd 011, 5-((2,3-dihydro-1H-inden-1-yl)oxy)-2-methylbenzofuran-3-carboxylic acid] | 1 to 20 |
| COc1cccc(COc2ccc3oc(C)c(C(=O)O)c3c2)c1 [Cpd 012, 5-((3-methoxybenzyl)oxy)-2-methylbenzofuran-3-carboxylic acid] | < 1 |
| COc1ccccc1COc1ccc2oc(C)c(C(=O)O)c2c1 [Cpd 013, 5-((2-methoxybenzyl)oxy)-2-methylbenzofuran-3-carboxylic acid] | 1 to 20 |
| COc1ccc(COc2ccc3oc(C)c(C(=O)O)c3c2)cc1 [Cpd 014, 5-((4-methoxybenzyl)oxy)-2-methylbenzofuran-3-carboxylic acid] | 1 to 20 |
| CCc1oc2ccc(OCc3cccc(F)c3)cc2c1C(=O)O [Cpd 015, 2-ethyl-5-((3-fluorobenzyl)oxy)benzofuran-3-carboxylic acid] | 1 to 20 |
| Cc1oc2ccc(OCc3ccc(Cl)cc3)cc2c1C(=O)O [Cpd 016, 5-((4-chlorobenzyl)oxy)-2-methylbenzofuran-3-carboxylic acid] | 1 to 20 |
| Cc1oc2ccc(OCc3cccc(Cl)c3)cc2c1C(=O)O [Cpd 017, 5-((3-chlorobenzyl)oxy)-2-methylbenzofuran-3-carboxylic acid] | 1 to 20 |
| Cc1oc2ccc(OCc3ccccc3Cl)cc2c1C(=O)O [Cpd 018, 5-((2-chlorobenzyl)oxy)-2-methylbenzofuran-3-carboxylic acid] | 1 to 20 |
